Laboratory results as given in paper PMC7535918, “Uncovering a novel molecular mechanism for scavenging sialic acids in bacteria” (The Journal of Biological Chemistry, 2020).

Legend:
RgNanOx [1] = target: T1, RgNanOx (Mediterraneibacter gnavus, UniProt A7B558); test: X-ray crystal structure of the complex ([…] and […] A); type: binding; conditions: NAD+ bound at Rossmann fold; citric acid from crystallization buffer beside nicotinamide; sodium citrate pH […], PEG […]
T1 construct: gene RUMGNA_02695; Gfo/Idh/MocA-class Rossmann fold; dimer in the asymmetric unit

RgNanOx [2] = target: T1, RgNanOx; test: differential scanning fluorimetry; type: binding; conditions: […] NADH, […] protein, […] sodium phosphate pH […]

Compound | X-ray crystal structure of the complex (2.58 and 1.74 A) (RgNanOx [1]) | ΔTm (RgNanOx [2])
NC(=O)c1ccc[n+]([C@@H]2O[C@H](COP(=O)(O)OP(=O)(O)OC[C@H]3O[C@@H](n4cnc5c(N)ncnc54)[C@H](O)[C@@H]3O)[C@@H](O)[C@H]2O)c1 [NAD^+] | crystal structure of the recombinant RgNanOx in complex with the NAD^+ cofactor was solved | –
NC(=O)C1=CN([C@@H]2O[C@H](COP(=O)(O)OP(=O)(O)OC[C@H]3O[C@@H](n4cnc5c(N)ncnc54)[C@H](O)[C@@H]3O)[C@@H](O)[C@H]2O)C=CC1 [NADH] | – | DSF analysis of RgNanOx and EcNanOx, the ΔTm is shown
